# What was measured:
# LoVo-parental cells [1] = details: 24 hours
# LoVo-OXAR cells = details: high dose 100 mg/kg/day orally, compared to low dose 10 mg/kg/day
# Source text: (§1) Six-week-old male NU/NU mice were purchased from Bio LASCO Taiwan Co., Ltd (Taipei, Taiwan) and randomly assigned into six groups (Groups 1 to 6), each containing three mice. […] All mice were sacrificed on day 30, and the mouse lung, kidney, spleen, and heart were examined for metastatic cancer cells.
# LoVo-parental cells [2] = details: high dose 100 mg/kg/day orally, compared to low dose 10 mg/kg/day
# Source text: as §1
# [3] = test system: EMT markers in LoVo-OXAR cells; details: immunofluorescence
# Source text: (§2) Vimentin and E-cadherin are molecular markers linked to tumor progression through their roles in EMT, which is a pathological process contributing to migration and invasion of cancer cells and tumor progression. Vimentin is a key component of intermediate filaments, which helps maintain cellular integrity and resistance to stress. E-cadherin plays a role in maintaining epithelial phenotypes by mediating contact inhibition when cells proliferate and reach confluence. To further investigate the influence of the compound (II) on EMT marker expression, western blotting, immunofluorescence detection, and quantitative real-time reverse transcription polymerase chain reaction (qRT-PCR) were performed in LoVo-parental and LoVo-OXAR cells treated with various doses of the compound (II) for 24 hours.
# (§3) The cells were then permeabilized with 0.1% Triton X-100 in 0.1% sodium citrate and the well was blocked with blocking buffer (2% bovine serum albumin), followed by immunofluorescence staining. The cells were incubated with primary antibodies against vimentin and E-cadherin for 24 hours at 4° C. and subsequently incubated with fluorescent secondary antibodies for 1 hour at 25° C. before DAPI staining and observation using fluorescence microscopy.
# [4] = test system: EMT markers in LoVo-parental cells; details: immunofluorescence
# Source text: as §2, §3
# CP70 cells = details: 0-1600 μg/ml, 24 hours
# [5] = test system: gemcitabine-resistant CL1 cells (CL1-GEMR cells); details: 0-1600 μg/ml, 24 hours
# Description: (§4) BEAS-2B cells (95102433, Sigma-Aldrich) were cultured in LHC-9 medium (Gibco™, Thermo Fisher Scientific, Waltham, MA, USA).
# CL1-parental cells = details: 0-1600 μg/ml, 24 hours
# Description: as §4
# BEAS-2B cells = details: 0-800 μg/ml, 24 hours
# Description: as §4
# [6] = test system: ER stress markers in LoVo-OXAR cells; details: 2000 μg/ml, 24 hours
# Description: (§5) Western blot analysis was conducted using primary antibodies against protein kinase RNA-like endoplasmic reticulum kinase (PERK), phosphorylated PERK (p-PERK), alpha subunit of eukaryotic translation initiation factor 2 (eIF2α), phosphorylated eIF2α (p-eIF2α), activating transcription factor 4 (ATF4), proliferating cell nuclear antigen (PCNA), glyceraldehyde 3-phosphate dehydrogenase (GAPDH), and caspase 3 (San-ta Cruz Biotechnology Inc. Santa Cruz, California, USA). GAPDH was used as an internal control for the normalization of protein expression. […] Phosphorylated eIF2α has been known to inhibit the synthesis of various proteins participating in tumorigenesis.
# [7] = test system: ER stress markers in LoVo-parental cells; details: 500 μg/ml, 24 hours
# Description: as §5
# GBM 8401 cells = details: 0-1800 μg/ml, 24 hours
# Description: Human brain glioblastoma multiforme GBM 8401 cells (commercially available from BCRC under the number BCRC 60163) were cultured in RPMI 1640 medium supplemented with 10% FBS.
# PANC-1 cells = details: six days
# Description: (§6) Human pancreatic carcinoma MIA PaCa-2 cells (commercially available from ATCC under the number CRL-1420) were cultured in DMEM supplemented with 10% FBS, 1 mM sodium pyruvate, and 2.5% horse serum. Human pancreatic epithelioid carcinoma PANC-1 cells (commercially available from ATCC under the number CRL-1469) were cultured in DMEM supplemented with 10% FBS and 1 mM sodium pyruvate.
# MIA PaCa-2 cells = details: six days
# Description: as §6
# T24 cells = details: 0-1600 μg/ml, 24 hours
# Description: Human bladder carcinoma T24 cells (commercially available from ATCC under the number HTB-4) were cultured in RPMI 1640 medium supplemented with 10% FBS.
# [8] = test system: EMT markers in LoVo-OXAR cells; details: western blot, 24 hours
# Source text: as §2
# (§7) The cells after the indicated treatments were harvested and subject to western blot analysis using primary antibodies against vimentin, E-cadherin, and GAPDH (San-ta Cruz Biotechnology Inc. Santa Cruz, California, USA). GAPDH was used as an internal control.
# [9] = test system: EMT markers in LoVo-parental cells; details: western blot, 24 hours
# Source text: as §2, §7
# A431 cells = details: 1-1000 μg/ml, 48 hours
# Description: Human epidermoid carcinoma A431 cells (commercially available from ATCC under the number CRL-1555) were cultured in DMEM supplemented with 10% FBS.
# HA22T-HDACiR cells = details: 0-1250 μg/ml, 24 hours
# LoVo-parental cells [10] = details: single agent: compound (II) 500 μg/ml or oxaliplatin 50 μg/ml, 48 hours
# 143B cells = test: MTT assay, viability of 143B cells; assay type: cell-based, human; details: 24 hours
# Description: Human osteosarcoma 143B cells (commercially available from ATCC under the number CRL-8303) were cultured in DMEM supplemented with 10% FBS and 1% sodium pyruvate.
compound,measurement,setting,value
CC(=O)[O-].CC(=O)[O-].CC(=O)[O-].CC(=O)[O-].CC(=O)[O-].CC(=O)[O-].O.O.O.O.O=[N+]([O-])[O-].[Cr+3].[Fe+3].[Fe+3].[OH-].[OH-] [compound (II)],viability of LoVo-parental cells,LoVo-parental cells [1]; 0-4000 μg/ml,reduced the viability of both colorectal cancer cells in a dose-dependent manner
same,IC50 against LoVo-parental cells,LoVo-parental cells [1]; MTT,about 500 μg/ml
same,"metastasis to the lung, kidney, spleen, and heart",LoVo-OXAR cells,effectively inhibited the metastasis
same,"metastasis to the lung, kidney, spleen, and heart",LoVo-parental cells [2],effectively inhibited the metastasis
same,expression of E-cadherin,[3],significantly increased
same,vimentin expression,[3],significantly suppressed
same,expression of E-cadherin,[4],significantly increased
same,vimentin expression,[4],significantly suppressed
same,viability of CP70 cells,CP70 cells,reduced the viability of the ovarian cancer cells in a dose-dependent manner
same,viability of gemcitabine-resistant CL1 cells,[5],reduced the viability of both lung cancer cells in a dose-dependent manner
same,viability of CL1-parental cells,CL1-parental cells,reduced the viability of both lung cancer cells in a dose-dependent manner
same,survival of non-tumorigenic BEAS-2B cells,BEAS-2B cells,did not significantly inhibit the survival of BEAS-2B cells
same,eIF2α levels in LoVo-OXAR cells,[6]; western blot,decreased
same,phosphorylation of eIF2α in LoVo-OXAR cells,[6]; western blot,increased
same,caspase-3 cleavage,[6]; LoVo-OXAR cells,activates caspase-3 cleavage
same,"expression of ER stress markers, including PERK, p-eIF2α, and ATF4",[6]; LoVo-OXAR cells,enhancing the expression of ER stress markers
same,caspase-3 cleavage,[7],activates caspase-3 cleavage
same,"expression of ER stress markers, including PERK, p-eIF2α, and ATF4",[7],enhancing the expression of ER stress markers
same,viability of GBM 8401 cells,GBM 8401 cells,reduced the viability of the glioblastoma cells in a dose-dependent manner
same,viability of PANC-1 cells,PANC-1 cells; 0-2000 μg/ml,reduced the viability of both pancreatic cancer cells in a dose-dependent manner
same,IC50 against PANC-1 cells,PANC-1 cells; MTT,~1700 µg/mL
same,viability of MIA PaCa-2 cells,MIA PaCa-2 cells; 0-2000 μg/ml,reduced the viability of both pancreatic cancer cells in a dose-dependent manner
same,IC50 against MIA PaCa-2 cells,MIA PaCa-2 cells; MTT,approximately 660 μg/ml
same,viability of T24 cells,T24 cells,reduced the viability of the bladder carcinoma cells in a dose-dependent manner
same,protein expression of E-cadherin,[8],increased
same,protein expression of vimentin,[8],significantly reduced
same,protein expression of E-cadherin,[9],increased
same,protein expression of vimentin,[9],significantly reduced
same,viability of A431 cells,A431 cells,reduced the viability of the A431 cells in a dose-dependent manner
same,viability of HA22T-HDACiR cells,HA22T-HDACiR cells,reduced the viability of both liver cancer cells in a dose-dependent manner
same,migration rate of LoVo-parental cells,LoVo-parental cells [10],significantly decreased
same,viability of 143B cells,143B cells; 0-4000 μg/ml,reduced the viability of the osteosarcoma cells in a dose-dependent manner
same,IC50 against 143B cells,143B cells; MTT,approximately 500 μg/ml

# Source: patent US20260199371A1, “COORDINATION COMPOUND, COMPOSITIONS, AND USES THEREOF FOR TREATING CANCERS” (HUEIYUAN BIOTECH LLC, priority 2023, published 2026)
